Where “and” joins values, the source holds several entries; their conditions need not be identical. Identical values can stand only once. Calls of active or inactive are those of the source. No cut-off for these calls is given here.
Legend:
Streptococcus pyogenes = assay: Antibiotic activity against Streptococcus pyogenes assessed as reduction in bacterial growth by Alamar Blue dye based CLSI broth microdilution method; type: functional
Staphylococcus aureus [1] = assay: Antibiotic activity against Staphylococcus aureus ATCC 13709 assessed as reduction in bacterial growth by Alamar Blue dye based CLSI broth microdilution method; type: functional
Nakaseomyces glabratus = assay: Antibiotic activity against Candida glabrata assessed as reduction in fungal growth by Alamar Blue dye based CLSI broth microdilution method; type: functional
Bacillus subtilis = assay: Antibiotic activity against Bacillus subtilis ATCC 6633 assessed as reduction in bacterial growth by Alamar Blue dye based CLSI broth microdilution method; type: functional
Candida albicans = assay: Antibiotic activity against Candida albicans assessed as reduction in fungal growth by Alamar Blue dye based CLSI broth microdilution method; type: functional
Bacillus anthracis = assay: Antibiotic activity against Bacillus anthracis assessed as reduction in bacterial growth by Alamar Blue dye based CLSI broth microdilution method; type: functional
Klebsiella pneumoniae = assay: Antibiotic activity against Klebsiella pneumoniae ATCC 10031 assessed as reduction in bacterial growth by Alamar Blue dye based CLSI broth microdilution method; type: functional, organism-based
Escherichia coli = assay: Antibiotic activity against Escherichia coli ATCC 25922 assessed as reduction in bacterial growth by Alamar Blue dye based CLSI broth microdilution method; type: functional, organism-based
Pseudomonas aeruginosa = assay: Antibiotic activity against Pseudomonas aeruginosa assessed as reduction in bacterial growth by Alamar Blue dye based CLSI broth microdilution method; type: functional, organism-based
Staphylococcus aureus [2] = assay: Antibiotic activity against multidrug-resistant Staphylococcus aureus NE277 assessed as reduction in bacterial growth by Alamar Blue dye based CLSI broth microdilution method; type: functional, organism-based
Staphylococcus aureus [3] = assay: Antibiotic activity against multidrug-resistant Staphylococcus aureus CAIRD116 assessed as reduction in bacterial growth by Alamar Blue dye based CLSI broth microdilution method; type: functional, organism-based
Staphylococcus aureus [4] = assay: Antibiotic activity against multidrug-resistant Staphylococcus aureus CAIRD142 assessed as reduction in bacterial growth by Alamar Blue dye based CLSI broth microdilution method; type: functional, organism-based
Staphylococcus aureus [5] = assay: Antibiotic activity against multidrug-resistant Staphylococcus aureus CAIRD148 assessed as reduction in bacterial growth by Alamar Blue dye based CLSI broth microdilution method; type: functional, organism-based

Compound	MIC (Streptococcus pyogenes)	MIC (Staphylococcus aureus [1])	MIC (Nakaseomyces glabratus)	MIC (Bacillus subtilis)	MIC (Candida albicans)	MIC (Bacillus anthracis)	Activity (Klebsiella pneumoniae)	Activity (Escherichia coli)	Activity (Pseudomonas aeruginosa)	Activity (Staphylococcus aureus [2])	Activity (Staphylococcus aureus [3])	Activity (Staphylococcus aureus [4])	Activity (Staphylococcus aureus [5])
C[C@@H]1CCCCCCCCC[C@H](OC(=O)CCC(=O)O)[C@H](O)CCC(=O)O1	> 500 µM and > 45 µg/mL	> 500 µM and > 45 µg/mL	> 500 µM and > 45 µg/mL	> 500 µM and > 45 µg/mL	> 500 µM and > 45 µg/mL	> 500 µM and > 45 µg/mL	inactive	inactive	inactive	–	–	–	–
C[C@@H]1CCCCCCCCC[C@H](O)[C@H](O)/C=C/C(=O)O1	> 250 µM and > 71 µg/mL	250 µM and 71 µg/mL	> 250 µM and > 71 µg/mL	> 250 µM and > 71 µg/mL	> 250 µM and > 71 µg/mL	250 µM and > 71 µg/mL	–	–	–	–	–	–	–
COC(=O)[C@]12C(=O)[C@]3(C)O[C@](C)(C=C4[C@]5(C=O)CC[C@H](OC(C)=O)C(C)(C)[C@H]5CC[C@@]41C)[C@@]2(C)C3=O	–	125 µM and 62 µg/mL	> 500 µM and > 248 µg/mL	250 µM and 124 µg/mL	> 500 µM and > 248 µg/mL	125 µM and 62 µg/mL	inactive	inactive	inactive	–	–	–	–
C[C@@H]1CCCCCCCCC[C@H](OC(=O)CCC(=O)O)[C@H](O)/C=C/C(=O)O1	> 250 µM and > 90 µg/mL	125 µM and 45 µg/mL	> 250 µM and > 90 µg/mL	> 250 µM and > 90 µg/mL	> 250 µM and > 90 µg/mL	> 250 µM and > 90 µg/mL	–	–	–	–	–	–	–
C[C@@H](O)CCCCCCCCC[C@H](OC(=O)CCC(=O)O)[C@H]1CCC(=O)O1	> 500 µM and 193 µg/mL	500 µM and 193 µg/mL	500 µM and 193 µg/mL	500 µM and 193 µg/mL	125 µM and 48 µg/mL	> 500 µM and 193 µg/mL	inactive	inactive	inactive	–	–	–	–
C[C@@H]1CCC(O)CCCCCC[C@H](OC(=O)CCC(=O)O)C(=O)/C=C/C(=O)O1 (some centres undefined)	250 µM and 100 µg/mL	32 µM and 13 µg/mL	> 500 µM and > 200 µg/mL	125 µM and 50 µg/mL	> 500 µM and > 200 µg/mL	64 µM and 26 µg/mL	–	–	–	Active	Active	Active	Active
C[C@@H](O)CCCCCCCCC[C@H](O)[C@H]1CCC(=O)O1	16 µM and 5 µg/mL	500 µM and 143 µg/mL	> 500 µM and > 143 µg/mL	> 500 µM and > 143 µg/mL	> 500 µM and > 143 µg/mL	> 500 µM and > 143 µg/mL	inactive	inactive	inactive	–	–	–	–
C[C@@H]1CCCCCCCCCC[C@H](O)/C=C/C(=O)O1	250 µM and 67 µg/mL	125 µM and 33 µg/mL	> 250 µM and > 67 µg/mL	125 µM and 33 µg/mL	> 250 µM and > 67 µg/mL	125 µM and > 67 µg/mL	–	–	–	–	–	–	–
C[C@@H]1CCCCCCCCC[C@H](OC(=O)CCC(=O)O)C(=O)/C=C/C(=O)O1	125 µM and 48 µg/mL	8 µM and 3 µg/mL	125 µM and 48 µg/mL	32 µM and 12 µg/mL	250 µM and 96 µg/mL	16 µM and 6 µg/mL	–	–	–	Active	Active	Active	Active
C[C@@H]1CCCCCCCCC[C@H](O)[C@H](OC(=O)CCC(=O)O)/C=C/C(=O)O1	> 250 µM and > 90 µg/mL	125 µM and 45 µg/mL	> 250 µM and > 90 µg/mL	125 µM and 45 µg/mL	> 250 µM and > 90 µg/mL	250 µM and > 90 µg/mL	–	–	–	–	–	–	–
